We go through eight compounds from patent publication US20170291905A1, “ARGININE […] INHIBITORS AND USES THEREOF” (Epizyme, Inc., priority 2014, published 2017).

pIC50: −log10 of the molar value.

full-length human PRMT8 isoform 1, sequence (Q9NR22 whole entry, canonical isoform): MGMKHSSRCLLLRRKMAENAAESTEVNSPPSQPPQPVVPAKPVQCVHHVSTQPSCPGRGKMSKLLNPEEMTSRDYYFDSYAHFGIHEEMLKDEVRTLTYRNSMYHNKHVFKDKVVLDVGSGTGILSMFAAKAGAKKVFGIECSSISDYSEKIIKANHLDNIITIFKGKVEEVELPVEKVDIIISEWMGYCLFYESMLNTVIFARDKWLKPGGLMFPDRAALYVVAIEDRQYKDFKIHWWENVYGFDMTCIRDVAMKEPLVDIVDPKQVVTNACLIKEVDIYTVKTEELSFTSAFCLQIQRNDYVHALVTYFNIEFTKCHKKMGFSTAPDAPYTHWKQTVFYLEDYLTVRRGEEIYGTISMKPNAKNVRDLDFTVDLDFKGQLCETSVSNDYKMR

This experiment has as its target full-length human PRMT8 isoform 1 (Homo sapiens, UniProt Q9NR22). Description: PRMT8 biochemical assay (3H-SAM Flashplate, histone H4 31-45 peptide). Particulars: 1.5 nM PRMT8, 30 min preincubation, 150 nM peptide. From the text:
S-adenosylmethionine (SAM), S-adenosylhomocysteine (SAH), bicine, Tween20, dimethylsulfoxide (DMSO), bovine skin gelatin (BSG), isopropyl-β-D-thiogalactopyranoside (IPTG), and Tris(2-carboxyethyl)phosphine hydrochloride solution (TCEP) were purchased from Sigma-Aldrich at the highest level of purity possible. ^3H-SAM was purchase from American Radiolabeled Chemicals with a specific activity of 80 Ci/mmol. 384-well streptavidin Flashplates were purchased from PerkinElmer.
Peptide representative of human histone H4 residues 31-45 was synthesized with an N-terminal linker-affinity tag motif and a C-terminal amide cap by 21st Century Biochemicals. The peptide was purified by high-performance liquid chromatography (HPLC) to greater than 95% purity and confirmed by liquid chromatography mass spectrometry (LC-MS). The sequence was Biot-Ahx-[…]-amide (SEQ ID NO.:8).
The resulting construct encodes an N-terminal GST tag and a thrombin cleavage sequence
E. coli (BL21(DE3) Gold, Stratagene) made competent by the CaCl2 method were transformed with the PRMT8 construct and ampicillin selection. Protein over-expression was accomplished by growing the PRMT8 expressing E. coli clone and inducing expression with 0.3 mM IPTG at 16° C. The culture was grown for 12 hours, harvested by centrifugation, and stored at −80° C. for purification.
GST-tagged PRMT8 was eluted with 50 mM Tris, 2 mM glutathione, pH 7.8. Pooled fractions were cleaved by thrombin (10U) and dialysed in buffer A. GST was removed by reloading the cleaved protein sample onto glutathione sepharose column and PRMT8 was collected in the flow-through fractions. PRMT8 was purified further by ceramic hydroxyapatite chromatography. The column was washed with 50 mM phosphate buffer, 100 mM NaCl, 5% glycerol, 5 mM […], pH 7.8 and PRMT8 was eluted by 100 mM phosphate in the same buffer. Protein was concentrated and buffer was exchanged to 50 mM Tris, 300 mM NaCl, 10% glycerol, 5 mM β-mercaptoethanol, pH 7.8 by ultrafiltration. The purity of recovered protein was 89%.
General Procedure for PRMT8 Enzyme Assays on Peptide Substrates.
The assays were all performed in a buffer consisting of 20 mM Bicine (pH=7.6), 1 mM TCEP, 0.005% BSG, and 0.002% Tween 20, prepared on the day of use. Compounds in 100% DMSO (1 ul) were spotted into a polypropylene 384-well V-bottom plates (Greiner) using a Platemate Plus outfitted with a 384-channel head (Thermo Scientific). DMSO (1 ul) was added to Columns 11, 12, 23, 24, rows A-H for the maximum signal control and 1 ul of SAH, a known product and inhibitor of PRMT8, was added to columns 11, 12, 23, 24, rows I-P for the minimum signal control. A cocktail (40 ul) containing the PRMT8 enzyme was added by Multidrop Combi (Thermo-Fisher). The compounds were allowed to incubate with PRMT8 for 30 min at room temperature, then a cocktail (10 ul) containing ^3H-SAM and peptide was added to initiate the reaction (final volume=51 ul). The final concentrations of the components were as follows: PRMT8 was 1.5 nM, ^3H-SAM was 50 nM, non-radiolabeled SAM was 550 nM, peptide was 150 nM, SAH in the minimum signal control wells was 1 mM, and the DMSO concentration was 2%. The assays were stopped by the addition of non-radiolabeled SAM (10 ul) to a final concentration of 400 uM, which dilutes the ^3H-SAM to a level where its incorporation into the peptide substrate is no longer detectable. 50 ul of the reaction in the 384-well polypropylene plate was then transferred to a 384-well Flashplate and the biotinylated peptides were allowed to bind to the streptavidin surface for at least 1 hour before being washed once with 0.1% Tween20 in a Biotek ELx405 plate washer. The plates were then read in a PerkinElmer TopCount plate reader to measure the quantity of ^3H-labeled peptide bound to the Flashplate surface, measured as disintegrations per minute (dpm) or alternatively, referred to as counts per minute (cpm). […]
Consider `Cc1[nH]nc([C@H]2CC[C@]3(CC2)CC(C)(C)CO3)c1CN(C)CCN` [compound 52, N1-((3-((5r,8r)-3,3-dimethyl-1-oxaspiro[4.5]decan-8-yl)-5-methyl-1H-pyrazol-4-yl)methyl)-N1-methylethane-1,2-diamine], for which the pIC50 was 7.64.

Consider `CCOC[C@@H]1CC(c2n[nH]cc2CN(C)CCNC)CCC1(C)C` (stereo partly drawn) [compound 31, {2-[({3-[(3R)-3-(ethoxymethyl)-4,4-dimethylcyclohexyl]-1H-pyrazol-4-yl}methyl)(methyl)amino]ethyl}(methyl)amine], for which the pIC50 is 6.49.

Turning to `CCOCC1(COCC)CCC(c2nn(C)cc2CN(C)CCNC)CC1` [compound 122], the pIC50 was 7.55.

Turning to `CNCCN(C)Cc1cncn1[C@H]1CC[C@]2(CC1)CC(C)(C)CO2` [compound 98], the pIC50 is 5.43.

For `CNCCN(C)Cc1cnnn1[C@H]1CC[C@@]2(CC1)CC(C)(C)CO2` [compound 65], the pIC50 is < 5.00.

Regarding `CNCCN(C)Cc1c[nH]nc1C1CCC(COCC(C)C)(COCC(C)C)CC1` [compound 6], the pIC50 was 7.20.

Consider `CNCCN(C)Cc1c[nH]nc1C1CCC2(CC1)CC(C)(C)OC2=O` (centres unmarked) [compound 125], for which the pIC50 is 7.80.

For `Cc1[nH]nc(C2CCC3(CC2)CC(C)(C)CO3)c1CN(C)CCN` (centres unmarked) [compound 59], the pIC50 is 7.76.

Usually pIC50 stands for the negative decadic logarithm of the IC50, by convention in mol/L. Low readings indicate a large IC50, high ones a small IC50.
